Results as given in US20260013501A1, “HERBICIDAL DERIVATIVES” (SYNGENTA CROP PROTECTION AG, priority 2022, published 2026).

Key:
Type in all cases: in vivo
Conditions in all cases: evaluated after 13 days
[1] = tested on: Echinochloa crus-galli (ECHCG); test: Pre-emergence Test (Table B1), ECHCG
[2] = tested on: Ipomoea hederacea (IPOHE); test: Pre-emergence Test (Table B1), IPOHE
Zea mays (ZEAMX) [3] = test: Pre-emergence Test (Table B1), ZEAMX
[4] = tested on: Amaranthus palmeri (AMAPA); test: Pre-emergence Test (Table B1), AMAPA
[5] = tested on: Amaranthus retoflexus (AMARE); test: Pre-emergence Test (Table B1), AMARE
Zea mays (ZEAMX) [6] = test: Post-emergence Test (Table B2), ZEAMX; design: key: 5-point damage scale: 5=81-100%, 4=61-80%, 3=41-60%, 2=21-40%, 1=0-20%
Experimental: Seeds of a variety of test species are sown in standard soil in pots (Ipomoea hederacea (IPOHE), Zea mays (ZEAMX), Echinochloa crus-galli (ECHCG), Amaranthus palmeri (AMAPA), (Amaranthus retoflexus (AMARE), and (Setaria faberi (SETFA)). After 8 days cultivation under controlled conditions in a glasshouse (at 24° C./16° C., day/night; 14 hours light; 65% humidity), the plants are sprayed with an aqueous spray solution derived from the formulation of the technical active ingredient in acetone/water (50:50) solution containing 0.5% Tween 20 (polyoxyethelyene sorbitan monolaurate, CAS RN 9005-64-5). Rate of application is shown in g/ha in the tables below. The test plants are then grown in a glasshouse under controlled conditions in a glasshouse (at 24° C./16° C., day/night; 14 hours light; 65% humidity) and watered twice daily. After 13 days the test is evaluated for the percentage damage caused to the plant. The biological activities are shown in the following table on a five-point scale (5=81-100%; 4=61-80%; 3=41-60%; 2=21-40%; 1=0-20%; -=not tested).

CCn1c(Cc2cc(C(F)(F)F)ccn2)cc(=O)c(C(=O)O)c1-c1ccc(Cl)c(Cl)c1 [Compound 18, 2-(3,4-dichlorophenyl)-1-ethyl-4-oxo-6-[[4-(trifluoromethyl)-2-pyridyl]methyl]pyridine-3-carboxylic acid]
0: Pre-emergence Test, percentage damage caused to the plant (five-point scale), ECHCG ([1]; Rate 1000 g/Ha)

CCn1c(Cc2ccc(SC)cc2)cc(=O)c(C(=O)O)c1-c1ccc(Cl)c(Cl)c1 [Compound 28, 2-(3,4-dichlorophenyl)-1-ethyl-6-[(4-methylsulfanylphenyl)methyl]-4-oxo-pyridine-3-carboxylic acid]
0: Pre-emergence Test, percentage damage caused to the plant (five-point scale), IPOHE ([2]; Rate 1000 g/Ha) | Pre-emergence Test, percentage damage caused to the plant (five-point scale), ZEAMX (Zea mays (ZEAMX) [3]; Rate 1000 g/Ha) | Pre-emergence Test, percentage damage caused to the plant (five-point scale), AMAPA ([4]; Rate 1000 g/Ha) | Pre-emergence Test, percentage damage caused to the plant (five-point scale), AMARE ([5]; Rate 1000 g/Ha) | percentage damage caused to the plant, ZEAMX (Zea mays (ZEAMX) [6]; rate 1000 g/Ha)

CCn1c(Cc2cccc(F)c2)cc(=O)c(C(=O)O)c1-c1ccc(Cl)c(Cl)c1 [Compound 37, 2-(3,4-dichlorophenyl)-1-ethyl 6-[(3-fluorophenyl)methyl]-4-oxo-pyridine-3-carboxylic acid]
0: Pre-emergence Test, percentage damage caused to the plant (five-point scale), IPOHE ([2]; Rate 1000 g/Ha) | Pre-emergence Test, percentage damage caused to the plant (five-point scale), ZEAMX (Zea mays (ZEAMX) [3]; Rate 1000 g/Ha) | Pre-emergence Test, percentage damage caused to the plant (five-point scale), AMAPA ([4]; Rate 1000 g/Ha) | Pre-emergence Test, percentage damage caused to the plant (five-point scale), AMARE ([5]; Rate 1000 g/Ha) | percentage damage caused to the plant, ZEAMX (Zea mays (ZEAMX) [6]; rate 1000 g/Ha)

CCn1c(Cc2ccnc(Cl)c2)cc(=O)c(C(=O)O)c1-c1ccc(Cl)c(Cl)c1 [Compound 41, 6-[(2-chloro-4-pyridyl)methyl]-2-(3,4-dichlorophenyl)-1-ethyl-4-oxo-pyridine-3-carboxylic acid]
0: Pre-emergence Test, percentage damage caused to the plant (five-point scale), ZEAMX (Zea mays (ZEAMX) [3]; Rate 250 g/Ha) | Pre-emergence Test, percentage damage caused to the plant (five-point scale), AMAPA ([4]; Rate 250 g/Ha) | Pre-emergence Test, percentage damage caused to the plant (five-point scale), AMARE ([5]; Rate 250 g/Ha) | percentage damage caused to the plant, ZEAMX (Zea mays (ZEAMX) [6]; rate 250 g/Ha)

CCn1c(Cc2cncc(F)c2)cc(=O)c(C(=O)O)c1-c1ccc(Cl)c(Cl)c1 [Compound 42, 2-(3,4-dichlorophenyl)-1-ethyl-6-[(5-fluoro-3-pyridyl)methyl]-4-oxo-pyridine-3-carboxylic acid]
0: Pre-emergence Test, percentage damage caused to the plant (five-point scale), ZEAMX (Zea mays (ZEAMX) [3]; Rate 250 g/Ha) | Pre-emergence Test, percentage damage caused to the plant (five-point scale), ECHCG ([1]; Rate 250 g/Ha) | Pre-emergence Test, percentage damage caused to the plant (five-point scale), AMAPA ([4]; Rate 250 g/Ha) | percentage damage caused to the plant, ZEAMX (Zea mays (ZEAMX) [6]; rate 250 g/Ha)

CCn1c(Cc2nccnc2C(=O)O)cc(=O)c(C(=O)O)c1-c1ccc(Cl)c(Cl)c1 [Compound 49, 3-[[5-carboxy-6-(3,4-dichlorophenyl)-1-ethyl-4-oxo-2-pyridyl]methyl]pyrazine-2-carboxylic acid]
0: Pre-emergence Test, percentage damage caused to the plant (five-point scale), IPOHE ([2]; Rate 250 g/Ha) | Pre-emergence Test, percentage damage caused to the plant (five-point scale), ZEAMX (Zea mays (ZEAMX) [3]; Rate 250 g/Ha) | Pre-emergence Test, percentage damage caused to the plant (five-point scale), AMARE ([5]; Rate 250 g/Ha)

CCn1c(Cc2ccsc2)cc(=O)c(C(=O)O)c1-c1ccc(Cl)c(Cl)c1 [Compound 51, 2-(3,4-dichlorophenyl)-1-ethyl-4-oxo-6-(3-thienylmethyl) pyridine-3-carboxylic acid]
0: Pre-emergence Test, percentage damage caused to the plant (five-point scale), IPOHE ([2]; Rate 1000 g/Ha) | Pre-emergence Test, percentage damage caused to the plant (five-point scale), ZEAMX (Zea mays (ZEAMX) [3]; Rate 1000 g/Ha) | Pre-emergence Test, percentage damage caused to the plant (five-point scale), AMAPA ([4]; Rate 1000 g/Ha) | Pre-emergence Test, percentage damage caused to the plant (five-point scale), AMARE ([5]; Rate 1000 g/Ha)

CCn1c(Cc2ccc(OC(F)(F)F)cc2C)cc(=O)c(C(=O)O)c1-c1ccc(Cl)c(Cl)c1 [Compound 63, 2-(3,4-dichlorophenyl)-1-ethyl-6-[[2-methyl-4-(trifluoromethoxy)phenyl]methyl]-4-oxo-pyridine-3-carboxylic acid]
0: Pre-emergence Test, percentage damage caused to the plant (five-point scale), IPOHE ([2]; Rate 1000 g/Ha) | Pre-emergence Test, percentage damage caused to the plant (five-point scale), ZEAMX (Zea mays (ZEAMX) [3]; Rate 1000 g/Ha) | Pre-emergence Test, percentage damage caused to the plant (five-point scale), AMAPA ([4]; Rate 1000 g/Ha) | Pre-emergence Test, percentage damage caused to the plant (five-point scale), AMARE ([5]; Rate 1000 g/Ha)

CCn1c(Cc2ccc(OC)c(F)c2)cc(=O)c(C(=O)O)c1-c1ccc(Cl)c(Cl)c1 [Compound 83, 2-(3,4-dichlorophenyl)-1-ethyl-6-[(3-fluoro-4-methoxy-phenyl)methyl]-4-oxo-pyridine-3-carboxylic acid]
0: Pre-emergence Test, percentage damage caused to the plant (five-point scale), IPOHE ([2]; Rate 1000 g/Ha) | Pre-emergence Test, percentage damage caused to the plant (five-point scale), ZEAMX (Zea mays (ZEAMX) [3]; Rate 1000 g/Ha) | Pre-emergence Test, percentage damage caused to the plant (five-point scale), AMAPA ([4]; Rate 1000 g/Ha) | Pre-emergence Test, percentage damage caused to the plant (five-point scale), AMARE ([5]; Rate 1000 g/Ha)

CCn1c(Cc2cc(OC)ncn2)cc(=O)c(C(=O)O)c1-c1ccc(Cl)c(Cl)c1 [Compound 100, 2-(3,4-dichlorophenyl)-1-ethyl-6-[(6-methoxypyrimidin-4-yl)methyl]-4-oxo-pyridine-3-carboxylic acid]
0: Pre-emergence Test, percentage damage caused to the plant (five-point scale), ZEAMX (Zea mays (ZEAMX) [3]; Rate 250 g/Ha) | Pre-emergence Test, percentage damage caused to the plant (five-point scale), ECHCG ([1]; Rate 250 g/Ha) | Pre-emergence Test, percentage damage caused to the plant (five-point scale), AMARE ([5]; Rate 250 g/Ha)

CCOC(=O)c1cccc(Cc2cc(=O)c(C(=O)O)c(-c3ccc(Cl)c(Cl)c3)n2CC)n1 [Compound 102, 2-(3,4-dichlorophenyl)-6-[(6-ethoxycarbonylpyridin-1-ium-2-yl)methyl]-1-ehtyl-4-oxo-pyridine-3-carboxylic acid; 2,2,2-trifluoroacetate]
0: Pre-emergence Test, percentage damage caused to the plant (five-point scale), IPOHE ([2]; Rate 1000 g/Ha) | Pre-emergence Test, percentage damage caused to the plant (five-point scale), ZEAMX (Zea mays (ZEAMX) [3]; Rate 1000 g/Ha) | Pre-emergence Test, percentage damage caused to the plant (five-point scale), AMAPA ([4]; Rate 1000 g/Ha) | Pre-emergence Test, percentage damage caused to the plant (five-point scale), AMARE ([5]; Rate 1000 g/Ha) | percentage damage caused to the plant, ZEAMX (Zea mays (ZEAMX) [6]; rate 1000 g/Ha)

CCn1c(Cc2cc(COC)cc(Cl)n2)cc(=O)c(C(=O)O)c1-c1ccc(Cl)c(Cl)c1 [Compound 103, 6-[[6-chloro-4-(methoxymethyl)-2-pyridyl]methyl]-2-(3,4-dichlorophenyl)-1-ethyl-4-oxo-pyridine-3-carboxylic acid]
0: Pre-emergence Test, percentage damage caused to the plant (five-point scale), IPOHE ([2]; Rate 1000 g/Ha) | Pre-emergence Test, percentage damage caused to the plant (five-point scale), ZEAMX (Zea mays (ZEAMX) [3]; Rate 1000 g/Ha) | Pre-emergence Test, percentage damage caused to the plant (five-point scale), AMAPA ([4]; Rate 1000 g/Ha) | Pre-emergence Test, percentage damage caused to the plant (five-point scale), AMARE ([5]; Rate 1000 g/Ha)

CCn1c(Cc2cc(C#N)ccn2)cc(=O)c(C(=O)O)c1-c1ccc(Cl)c(Cl)c1 [Compound 111, 6-[(4-cyano-2-pyridyl)methyl]-2-(3,4-dichlorophenyl)-1-ethyl-4-oxo-pyridine-3-carboxylic acid]
0: Pre-emergence Test, percentage damage caused to the plant (five-point scale), ECHCG ([1]; Rate 250 g/Ha)

CCn1c(Cc2cc(C)ncn2)cc(=O)c(C(=O)O)c1-c1ccc(Cl)c(Cl)c1 [Compound 128, 2-(3,4-dichlorophenyl)-1-ethyl-6-[(6-methylpyrimidin-4-yl)methyl]-4-oxo-pyridine-3-carboxylic acid]
0: Pre-emergence Test, percentage damage caused to the plant (five-point scale), ZEAMX (Zea mays (ZEAMX) [3]; Rate 250 g/Ha) | Pre-emergence Test, percentage damage caused to the plant (five-point scale), ECHCG ([1]; Rate 250 g/Ha) | percentage damage caused to the plant, ZEAMX (Zea mays (ZEAMX) [6]; rate 250 g/Ha)

CCn1c(Cc2cnc(Cl)cn2)cc(=O)c(C(=O)O)c1-c1ccc(Cl)c(Cl)c1 [Compound 143, 6-[(5-chloropyrazin-2-yl)methyl]-2-(3,4-dichlorophenyl)-1-ethyl-4-oxo-pyridine-3-carboxylic acid]
0: Pre-emergence Test, percentage damage caused to the plant (five-point scale), ZEAMX (Zea mays (ZEAMX) [3]; Rate 250 g/Ha) | Pre-emergence Test, percentage damage caused to the plant (five-point scale), ECHCG ([1]; Rate 250 g/Ha) | Pre-emergence Test, percentage damage caused to the plant (five-point scale), AMAPA ([4]; Rate 250 g/Ha) | percentage damage caused to the plant, ZEAMX (Zea mays (ZEAMX) [6]; rate 250 g/Ha)

CCn1c(Cc2csnc2C)cc(=O)c(C(=O)O)c1-c1ccc(Cl)c(Cl)c1 [Compound 150, 2-(3,4-dichlorophenyl)-1-ethyl-6-[(3-methylisothiazol-4-yl)methyl]-4-oxo-pyridine-3-carboxylic acid]
0: Pre-emergence Test, percentage damage caused to the plant (five-point scale), IPOHE ([2]; Rate 250 g/Ha) | Pre-emergence Test, percentage damage caused to the plant (five-point scale), ZEAMX (Zea mays (ZEAMX) [3]; Rate 250 g/Ha) | percentage damage caused to the plant, ZEAMX (Zea mays (ZEAMX) [6]; rate 250 g/Ha)
